Source: article PMC4918903 (Journal of natural products, 2008)
≈ marks a conversion by molar mass, not a printed value. Entries after “also recorded” stand apart in the source; their conditions may differ.

What was measured:
[1] = system: Vero cell line (monkey kidney fibroblast cells); test: Cytotoxicity to mammalian Vero cells; type: cell-based; settings: highest tested concentration 4700 ng/mL
Candida albicans = test: In vitro antifungal activity; type: cell-based
Cryptococcus neoformans = test: In vitro antifungal activity; type: cell-based; settings: for IC50: Cryptococcus neoformans, read-out: C. neoformans IC50
[2] = system: methicillin-resistant S. aureus (MRSA); test: In vitro antibacterial activity; type: cell-based
[3] = system: Mycobacterium intracellulare; test: In vitro antibacterial activity; type: cell-based
Stability in solvents = type: physicochemical
KB carcinoma cell line = settings: replacement of hydroxyl with methoxy at 8-position; cited from earlier work
LoVo = settings: versus 8-hydroxy parent; cited from earlier work
HSV-II = settings: cited from earlier work
[4] = system: P. berghei (sensitive strain); test: In vivo antimalarial activity in rodent malaria model; settings: oral; for toxicity in vivo (in words): 30 mg/kg/day x 3 doses; for cure: mice without parasitemia up to day 28 post-infection
P. falciparum (D6 clone) = test: In vitro antimalarial activity, chloroquine-sensitive D6 clone; type: cell-based; settings: Plasmodium falciparum, D6, read-out: P. falciparum (D6 clone) IC50
P. falciparum (W2 clone) = test: In vitro antimalarial activity, chloroquine-resistant W2 clone; type: cell-based; settings: Plasmodium falciparum, W2, read-out: P. falciparum (W2 clone) IC50
[5] = system: Leishmania donovani promastigotes; test: Antileishmanial activity, Almar Blue assay; type: cell-based; settings: for IC50: read-out: L. donovani IC50
P. bergei-infected mice = settings: single intraperitoneal and oral administration; cited from earlier work

Compound: CC(=O)Oc1cccc2c1[nH]c1c(C3=C[C@@]4(OC(C)=O)CC/C=C\CCCCN5CC[C@@H]3[C@]3(C[C@@H]6/C=C\CCCCN6[C@H]34)C5)nccc12 [Compound 4, 8,12-diacetoxymanzamine A]
- toxicity to Vero cell line (in words) [1]: did not show cytotoxicity
- activity against C. albicans (in words) (Candida albicans): inactive
- activity against C. neoformans (in words) (Cryptococcus neoformans): inactive
- activity against MRSA (in words) [2]: moderate activity
- activity against M. intracellulare (in words) [3]: moderate activity
- stability in CDCl3 and CD2Cl2 (in words) (Stability in solvents; CDCl3 and CD2Cl2, 24 h, 1H NMR): decomposition
- stability in benzene (in words) (Stability in solvents; benzene, a few days of 1H NMR acquisition): no changes were observed
- stability in several tested solvents (in words) (Stability in solvents; several tested solvents with the exception of benzene): unstable and easily degraded

Compound: COc1cccc2c1[nH]c1c(C3=C[C@@]4(O)CC/C=C\CCCCN5CC[C@@H]3[C@]3(C[C@@H]6/C=C\CCCCN6[C@H]34)C5)nccc12 [Compound 5, 8-methoxymanzamine A]
- toxicity to Vero cell line (in words) [1]: exhibited toxicity
- stability in different solvents (in words) (Stability in solvents; different solvents, two months, LC-MS): no expected hydrolysis to compound 2 was observed
- toxicity in KB carcinoma cell line versus 8-hydroxy parent (in words) (KB carcinoma cell line): reduced the toxicity
- cytotoxicity against LoVo (in words) (LoVo): cytotoxity increased
- activity against HSV-II (in words) (HSV-II): no activity

Compound: Oc1cccc2c1[nH]c1c(C3=C[C@@]4(O)CC/C=C\CCCCN5CC[C@@H]3[C@]3(CC6/C=C\CCCCN6[C@H]34)C5)nccc12 (stereo partly drawn) [Compound 2, 8-hydroxymanzamine A]
- toxicity in vivo (in words) [4]: not toxic

Compound: CC(=O)Oc1cccc2c1[nH]c1c(C3=C[C@@]4(O)CC/C=C\CCCCN5CC[C@@H]3[C@]3(C[C@@H]6/C=C\CCCCN6[C@H]34)C5)nccc12 [Compound 3, 8-acetoxymanzamine A]
- toxicity to Vero cell line (in words) [1]: exhibited toxicity
- hydrolysis in DMSO and IPA (in words) (Stability in solvents; DMSO and IPA): negligible
- formation of hydroxyl moiety 2 in MeCN and DMSO (in words) (Stability in solvents; MeCN and DMSO): no detectable trace
- hydrolysis to 2 in MeOH (Stability in solvents; MeOH, 15 h, LC-MS): 98%
- cure ([4]; 10 mg/kg x 3 days): 0/4
- cure ([4]; 30 mg/kg x 3 days): 0/3
- toxicity in vivo (in words) [4]: higher toxicity; also recorded: toxic

Compound: Oc1cccc2c1[nH]c1c(C3=C[C@@]4(O)CC/C=C\CCCCN5CC[C@@H]3[C@]3(C[C@@H]6/C=C\CCCCN6[C@H]34)C5)nccc12 [Compound 2, 8-hydroxymanzamine A]
- IC50 (P. falciparum (D6 clone)): 0.006 µg/mL (≈ 0.0106 µM)
- IC50 (P. falciparum (W2 clone)): 0.008 µg/mL (≈ 0.0142 µM)
- IC50 [5]: 6.2 µg/mL (≈ 11 µM)
- MIC (Candida albicans; Candida albicans, read-out: C. albicans MIC): 20 µg/mL (≈ 35.4 µM)
- IC50 (Cryptococcus neoformans): 3 µg/mL (≈ 5.31 µM)
- prolonged survival of infected mice (P. bergei-infected mice): more than 10 days
- cure ([4]; 10 mg/kg x 3 days): 0/4
- cure ([4]; 30 mg/kg x 3 days): 0/4

Compound: N=C(N)c1ccc(OCCCCCOc2ccc(C(=N)N)cc2)cc1 [pentamidine, reference compound]
- IC50 [5]: 2.6 µg/mL (≈ 7.64 µM)
- IC90 ([5]; read-out: L. donovani IC90): 6.9 µg/mL (≈ 20.3 µM)

Compound: CCN(CC)CCCC(C)Nc1ccnc2cc(Cl)ccc12 (stereo not drawn) [chloroquine, reference compound]
- IC50 (P. falciparum (D6 clone)): 0.014 µg/mL (≈ 0.0438 µM)
- IC50 (P. falciparum (W2 clone)): 0.155 µg/mL (≈ 0.485 µM)
- % suppression in parasitemia (% activity) day 7 ([4]; 50 mg/kg x 3 days, vehicle 0.1 N HCl, day 7 post-infection): 100%
- % suppression in parasitemia (% activity) day 10 ([4]; 50 mg/kg x 3 days, vehicle 0.1 N HCl, day 10 post-infection): 100%
- % suppression in parasitemia (% activity) day 14 ([4]; 50 mg/kg x 3 days, vehicle 0.1 N HCl, day 14 post-infection): 100%
- cure ([4]; 50 mg/kg x 3 days): 3/4

Compound: O[C@]12C=C(c3nccc4c3[nH]c3ccccc34)[C@@H]3CCN(CCCC/C=C\CC1)C[C@@]31C[C@@H]3/C=C\CCCCN3[C@H]12 [Compound 1, manzamine A]
- IC50 (P. falciparum (D6 clone)): 0.0042 µg/mL (≈ 0.00765 µM)
- IC50 [5]: 0.9 µg/mL (≈ 1.64 µM)
- IC50 (Candida albicans; Candida albicans, read-out: C. albicans IC50): 2 µg/mL (≈ 3.64 µM)
- IC50 (Cryptococcus neoformans): 3 µg/mL (≈ 5.47 µM)
- IC50 ([3]; Mycobacterium intracellulare, read-out: M. intracellulare IC50): 0.35 µg/mL (≈ 0.638 µM)
- prolonged survival of infected mice (P. bergei-infected mice): more than 10 days
- cure ([4]; 10 mg/kg x 3 days): 1/4
- toxicity in vivo (in words) [4]: shows toxicity
